According to patent US5344841A, “Bis-(hydroxylakylamino)-anthraquinone inhibitors of protein kinase C” (Sphinx Pharmaceuticals Corporation, priority 1992, dated 1994):

Experiments:
[1] = target: protein kinase C; assay: Protein kinase C (PKC) inhibition assay (histone H1 phosphorylation); assay type: biochemical; conditions: rat brain PKC, histone H1 substrate
Protocol: The protein kinase C (PKC) assay is designed to duplicated the in vivo conditions required for protein kinase C function. Therefore, pH, salt and cofactor concentrations are similar to physiologic levels. Histone H1 (lysine rich) is used in the assay as the phosphorylation acceptor protein because it is readily available and serves as a good substrate for protein kinase C. The enzyme is prepared from rat brain and is purified to apparent homogeneity as determined by a single band on silver stained SDS-polyacrylamide. Studies on the mechanism of regulation of protein kinase C by phospholipids, DAG and Ca^+2 have been hampered by the physical properties of the lipid cofactors. In the screening assay, phosphatidylserine (PS) and DAG are cosonicated to form unilamellar and multilamellar vesicles. The concentration of lipids in the assay are suboptimal to maximize the detection potential of the assay for inhibitors. […] The assay is started with the addition of enzyme and stopped after 10 min by the addition of 25% trichloroacetic acid (TCA) and 1.0 mg/ml bovine serum albumin (BSA). The radioactive histone product is retained and washed on glass fiber filters that allow the unreacted ^32 P-ATP to pass through. The amount of phosphorylation is determined by the radioactivity measured in a scintillation counter. Controls are included in every assay to measure background activity in the absence of enzyme, activity in the absence of lipids and the maximum enzyme activity with saturating levels of the activator lipids.

[2] = tested on: MCF-7 human breast tumor cell line; assay: Human tumor growth inhibition, 3H-thymidine incorporation, MCF-7; assay type: cell-based; conditions: 3H-thymidine uptake; read-out: IC50 MCF-7
Text: (§1) MCF-7 a human breast tumor cell line, and MCF-7/ADR an adriamycin resistant line of MCF-7 cells were obtained from the National Cancer Institute, Frederick, Md. NHEK a human keratinocyte cell line was obtained from Clonetic Corp., San Diego, Calif. 8226 a human myeloma cell line, 8226/MT a Mitoxantrone resistant line of 8226 cells, and 8226 ADR an adriamycin resistant line of 8226 cells were obtained from Dr. Bill Dalton, Arizona Cancer Center, Tuscon, Ariz.
(§2) Human tumor cells are trypsinized (0.05% trypsin, GIBCO), counted with a hemacytometer and seeded at a concentration of 10,000 cells/well in a 96 well microtiter plate. After allowing cells to attach to the surface overnight, the culture medium is aspirated and replaced with 100 μl of fresh medium. Test agents are diluted to determine dose response at 2× final concentration and added in quadruplicate at 100 μl/well to bring the total volume of each well to 200 μl. The microtiter plate is then incubated at 37° C. 5% CO2 overnight (18-24 hrs) before ^3 H-thymidine is added at a concentration of 0.5 μCi/well in 50 μl culture medium. The plate is incubated again for 4 hrs under the same conditions as above. Supernatant is then aspirated and 50 μl trypsin (0.05%, GIBCO) is added to each well. Cells are checked microscopically to determine detachment from surfaces, and plates are then harvested with a cell harvester (PHD, Cambridge Technology, Inc.) Filter papers corresponding to wells are placed in scintillation vials and counted to determine the amount of ^3 H-thymidine incorporated by the cells. Test agent response is compared to a positive control of cell wells with culture media only to determine the IC50. IC50 is the concentration of test compound required to inhibit fifty percent of the incorporation of ^3 H-thymidine into proliferating cells not exposed to test agent. Uptake of ^3 H-thymidine is a standard test for measuring the metabolism of cells. Cells which are actively proliferating take up ^3 H-thymidine, whereas cells that are not proliferating take up ^3 H-thymidine at much slower rates or not at all. Test agents that inhibit the uptake of ^3 H-thymidine thus slow the growth of cells.

[3] = tested on: MCF-7/ADR adriamycin resistant line of MCF-7 cells; assay: Human tumor growth inhibition, 3H-thymidine incorporation, MCF-7/ADR; assay type: cell-based; conditions: MCF-7/ADR vs MCF-7
Text: as §1, §2

[4] = tested on: 8226 human myeloma cell line; assay: Human tumor growth inhibition, 3H-thymidine incorporation, 8226; assay type: cell-based; conditions: 3H-thymidine uptake, read-out: IC50 8226
Text: as §1, §2

[5] = tested on: 8226/ADR adriamycin resistant line of 8226 cells; assay: Human tumor growth inhibition, 3H-thymidine incorporation, 8226/ADR; assay type: cell-based; conditions: 8226/ADR vs 8226
Text: as §1, §2

[6] = tested on: NHEK human keratinocytes; assay: Human keratinocyte inhibition, 3H-thymidine incorporation; assay type: cell-based
Protocol: Human tumor cells are trypsinized (0.05% trypsin, GIBCO), counted with a hemacytometer and seeded at a concentration of 10,000 cells/well in a 96 well microtiter plate. After allowing cells to attach to the surface overnight, the culture medium is aspirated and replaced with 100 μl of fresh medium. Test agents are diluted to determine dose response at 2× final concentration and added in quadruplicate at 100 μl/well to bring the total volume of each well to 200 μl. The microtiter plate is then incubated at 37° C. 5% CO2 overnight (18-24 hrs) before ^3 H-thymidine is added at a concentration of 0.5 μCi/well in 50 μl culture medium. The plate is incubated again for 4 hrs under the same conditions as above. […] Cells are checked microscopically to determine detachment from surfaces, and plates are then harvested with a cell harvester (PHD, Cambridge Technology, Inc.) Filter papers corresponding to wells are placed in scintillation vials and counted to determine the amount of ^3 H-thymidine incorporated by the cells. […]
Proliferating keratinocytes (NHEK cells purchased from Clonetics, Inc. San Diego, Calif.) in second passage were grown in Keratinocyte Growth Medium (KGM) (Clonetics, Inc.) Cells were trypsinized with 0.025% trypsin (Clonetics), counted with a hemacytometer (Scientific Products), and seeded at a concentration of 2,500 cells/well in a 96 well microtiter plate. […]

[7] = tested on: MCF-7 human mammary carcinoma xenografts; assay: MCF-7 human mammary carcinoma xenografts in athymic nude mice; assay type: in vivo, mouse (human tumor xenograft); conditions: FIG. 4
[8] = tested on: MCF-7/ADR adriamycin resistant line of MCF-7 cells; assay: Human tumor growth inhibition, 3H-thymidine incorporation, MCF-7/ADR; assay type: cell-based; conditions: NCI/ADR-RES, 3H-thymidine uptake
[9] = tested on: 8226/ADR adriamycin resistant line of 8226 cells; assay: Human tumor growth inhibition, 3H-thymidine incorporation, 8226/ADR; assay type: cell-based; conditions: 3H-thymidine uptake
[10] = tested on: 8226/MT Mitoxantrone resistant line of 8226 cells; assay: Human tumor growth inhibition, 3H-thymidine incorporation, 8226/MT

For CCN(CC)CC(O)CNc1ccc(NCC2CO2)c2c1C(=O)c1ccccc1C2=O (centres unmarked) [Compound 1b-1, 1-(3-diethylamino-2-hydroxypropylamino)-4-(2,3-epoxypropylamino)-9, 10-anthracenedione], which IC50 [1] is on record?
Its IC50 is 110000 nM.

What about the IC50 [2] of the same compound?
The IC50 was 25 nM.

And the “Resistance Ratio (IC50 MCF-7/ADR to IC50 MCF-7)” value [3]?
Its value is 2.4.

What about the IC50 [4] of the same compound?
The IC50 was 60 nM.

And the “Resistance Ratio (8226/ADR)” value [5]?
The value was 0.26.

And the IC50 [6]?
Its IC50 is 40 nM.

What about the “median tumor weight vs control mice (in words)” value ([7]; at stabilization) of the same compound?
Its value is “significantly lower than the weight of the control mice”.

And the “day at which tumor growth was stabilized” value ([7]; iv, once every four days, five injections)?
Its value is ~30 days.

What about the “day until which median tumor weight remained stable” value ([7]; then tumor regrowth) of the same compound?
The value was ~38 days.

And the IC50 [8]?
Its IC50 is 60 nM.

What about the IC50 [9] of the same compound?
Its IC50 is 16 nM.

And the “Resistance Ratio (8226/MT)” value ([10]; 8226/MT vs 8226)?
The value was 0.13.

What about the IC50 ([10]; Homo sapiens, read-out: IC50 8226/MT) of the same compound?
Its IC50 is 8 nM.

What about the “ratio of IC50 for 8226 cells to IC50 for 8226/MT cells” value ([10]; text wording of ratio) of the same compound?
The value was 0.13.
